From PubChem BioAssay (NCI)
“And” between values parts separate entries of the source, which are not always exact repeats. Equal values may be shown once.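 Results reflect a 48-hour exposure of cells in 96-well plates to compound at five concentrations. At the GI50, growth is halved. TGI is the concentration that stops growth completely.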

Assays:
Test in all cases: NCI tumour cell line growth inhibition, 48 h
DU-145 prostate = system: DU-145 prostate
SK-MEL-5 melanoma = system: SK-MEL-5 melanoma
NCI-H226 lung = system: NCI-H226 lung
MDA-MB-435 = system: MDA-MB-435
SNB-19 CNS = system: SNB-19 CNS
CAKI-1 renal = system: CAKI-1 renal
ACHN renal = system: ACHN renal
UACC-62 melanoma = system: UACC-62 melanoma
SK-MEL-2 melanoma = system: SK-MEL-2 melanoma
NCI-H522 lung = system: NCI-H522 lung

| SMILES | GI50 (DU-145 prostate) | TGI (DU-145 prostate) | GI50 (SK-MEL-5 melanoma) | TGI (SK-MEL-5 melanoma) | GI50 (NCI-H226 lung) | TGI (NCI-H226 lung) | GI50 (MDA-MB-435) | TGI (MDA-MB-435) | GI50 (SNB-19 CNS) | TGI (SNB-19 CNS) | GI50 (CAKI-1 renal) | TGI (CAKI-1 renal) | GI50 (ACHN renal) | TGI (ACHN renal) | GI50 (UACC-62 melanoma) | TGI (UACC-62 melanoma) | GI50 (SK-MEL-2 melanoma) | TGI (SK-MEL-2 melanoma) | GI50 (NCI-H522 lung) | TGI (NCI-H522 lung) |
| --- | --- | --- | --- | --- | --- | --- | --- | --- | --- | --- | --- | --- | --- | --- | --- | --- | --- | --- | --- | --- |
| COc1cc(-c2nc3ccccc3o2)cc(CN2CCCCC2)c1O | 1.82 µM | 3.33 µM | 1.09 µM | 2.3 µM | 1.85 µM | 4.32 µM | 1.7 µM | 3.53 µM | 5.44 µM | 26.9 µM | 14.3 µM | > 100 µM | 8.96 µM | 83.8 µM | 1.63 µM | 3.2 µM | 4.58 µM | 15.8 µM | 3.26 µM | 14.2 µM |
| Cc1ccc(-c2nc(-c3nccc4ccccc34)oc2-c2ccccc2)cc1 | – | > 100 µM | – | > 100 µM | – | > 100 µM | – | > 100 µM | – | > 100 µM | – | > 100 µM | – | > 100 µM | – | > 100 µM | – | > 100 µM | – | > 100 µM |
| COC1C=COC2(C)Oc3c(C)c(O)c4c(O)c(c(C5SCCS5)c(O)c4c3C2=O)NC(=O)/C(C)=C\C=CC(C)C(O)C(C)C(O)C(C)C(OC(C)=O)C1C (stereo unspecified) | – | 13.1 µM | – | 20.8 µM | – | 21.8 µM | – | 16.1 µM | – | 17.7 µM | – | 22.8 µM | – | 10.7 µM | – | 19.2 µM | – | 24.6 µM | – | 24.2 µM |
| COc1cc2c3c(n(CCCNCCCNCCN)c(=O)c2cc1OC)-c1cc2c(cc1C3=O)OCO2 | 51.9 µM | > 100 µM | 35.7 µM | > 100 µM | 79.4 µM | > 100 µM | 38 µM | > 100 µM | 53.9 µM | > 100 µM | 87.8 µM | > 100 µM | 18.7 µM | 57.1 µM | 37.1 µM | > 100 µM | > 100 µM | > 100 µM | 15.3 µM | 85.1 µM |
| Cc1c2ccncc2c(C)c2c1sc1ccccc12 | – | 29.7 µM | – | 23.1 µM | – | 42.9 µM | – | 39.3 µM | – | 26.7 µM | – | 27.9 µM | – | 15.7 µM | – | 18.6 µM | – | 50.4 µM | – | 23.1 µM |
| O=C(/C=C/c1ccccn1)c1ccc(OCc2nnc(-c3ccc(Cl)cc3)o2)cc1 | 1.62 µM | 3.02 µM | 1.56 µM | 3.14 µM | 2.69 µM | 7.79 µM | 1.71 µM | 3.6 µM | 1.86 µM | 3.98 µM | 1.69 µM | 3.24 µM | 1.66 µM | 3.11 µM | 1.83 µM | 3.55 µM | 3.29 µM | 8.61 µM | 1.89 µM | 3.94 µM |
| COc1ccc(-c2cn(-c3ccc(OC)c(OC)c3)c(=O)[nH]2)cc1 | > 100 µM | > 100 µM | 63.3 µM | > 100 µM | > 100 µM | > 100 µM | 50.2 µM | > 100 µM | > 100 µM | > 100 µM | > 100 µM | > 100 µM | > 100 µM | > 100 µM | > 100 µM | > 100 µM | > 100 µM | > 100 µM | > 100 µM | > 100 µM |
| N#Cc1nc(C#N)c(Sc2ccccc2)c(Sc2ccccc2)c1Sc1ccccc1 | 0.667 µM | 2.88 µM | 1.31 µM | 2.69 µM | 2.42 µM | – | 0.684 µM | 7.17 µM | 2.5 µM | 5.9 µM | 1.22 µM | > 100 µM | 0.395 µM | 1.79 µM | 1.37 µM | 3.2 µM | 2.17 µM | > 21.6 µM | 0.208 µM | 0.645 µM |
| Cn1cc(C2=C(c3cn(CCCN)c4ccccc34)C(=O)NC2=O)c2ccccc21 | 6.71 µM | 18.7 µM | 3.77 µM | 7.26 µM | 5.87 µM | > 18 µM | 2.66 µM | 6.62 µM | 7.89 µM | 24.9 µM | 4.94 µM | > 15.9 µM | 5.53 µM | 19.7 µM | 4.35 µM | 8.05 µM | 3.04 µM | 7.07 µM | 4.12 µM | 9.13 µM |
| O=C(Nc1ccccc1)OC1OC(COC(=O)c2ccccc2)C(OC(=O)c2ccccc2)C1OS(=O)(=O)c1ccc([N+](=O)[O-])cc1 (stereo unspecified) | – | > 100 µM | – | > 100 µM | – | > 100 µM | – | > 100 µM | – | > 100 µM | – | > 100 µM | – | > 100 µM | – | > 100 µM | – | > 100 µM | – | > 100 µM |
| Cc1nc2sc3c(N)ncnc3c2c(C)c1C | > 25 µM | > 25 µM | > 25 µM | > 25 µM | > 25 µM | > 25 µM | > 25 µM | > 25 µM | > 25 µM | > 25 µM | > 25 µM | > 25 µM | > 25 µM | > 25 µM | > 25 µM | > 25 µM | > 25 µM | > 25 µM | > 25 µM | > 25 µM |
| Cn1c(=O)c(Oc2ccc(F)cc2F)cc2cnc(N[C@@H]3CCOC3)nc21 | > 25 µM | > 25 µM | > 25 µM | > 25 µM | > 25 µM | > 25 µM | > 25 µM | > 25 µM | > 25 µM | > 25 µM | > 25 µM | > 25 µM | > 25 µM | > 25 µM | > 25 µM | > 25 µM | > 25 µM | > 25 µM | > 25 µM | > 25 µM |
| O=C1NC2(CCCCC2)C(=O)N1CCN(CCCl)CCCl | – | > 25 µM | > 25 µM | > 250 µM | > 25 µM | > 250 µM | – | > 25 µM | > 25 µM | > 250 µM | 19.5 µM | 25 µM and 175 µM | – | 25 µM | > 25 µM | > 25 µM and 242 µM | 13.3 µM | 25 µM and > 141 µM | > 25 µM | > 25 µM and 163 µM |
| Fc1ccc(-c2nn3ccccc3c2-c2ccncc2)cc1 | > 25 µM | > 25 µM | > 22.8 µM | > 25 µM | > 25 µM | > 25 µM | > 25 µM | > 25 µM | > 25 µM | > 25 µM | 11.8 µM | > 25 µM | 12.1 µM | > 25 µM | > 18.9 µM | > 25 µM | > 25 µM | > 25 µM | > 19.8 µM | > 25 µM |
| c1ccc(Oc2ccc(Nc3ncc(-c4ccccc4)o3)cc2)cc1 | > 25 µM | > 25 µM | > 25 µM | > 25 µM | > 25 µM | > 25 µM | > 25 µM | > 25 µM | > 25 µM | > 25 µM | > 25 µM | > 25 µM | > 25 µM | > 25 µM | > 25 µM | > 25 µM | > 25 µM | > 25 µM | > 25 µM | > 25 µM |
| Nc1ncc(-c2ccc3ncnc(N4CCc5ccc(Cl)cc54)c3c2)cc1C(F)(F)F | 1.43 µM | 18.2 µM | 5.08 µM | 28.8 µM | 3.04 µM | 24.1 µM | 1.68 µM | 13.5 µM | 2.63 µM | 23.7 µM | 0.457 µM | 5.56 µM | 0.569 µM | 13.2 µM | 0.965 µM | 11.1 µM | 5.12 µM | 23.5 µM | 1.76 µM | 17.9 µM |
